The source of these data is patent publication EP0867722A2, “Method for measuring interaction between sugar and target” (TAKARA SHUZO CO. LTD., priority 1997, dated 1998).

In one data set the target is T1, concanavalin A (Canavalia ensiformis, UniProt P02866).
T1 construct: purchased Honen Oil Co., Ltd
Nature of the data set: Fluorescence polarization measurement of interaction between fluorescence-labeled sugar fractions and concanavalin A. It is filed as binding. To be noted: 1 µM labeled sugar or fluorophore; no maximum means EC50 impossible to calculate. From the text: The interaction between the sugar molecules and the target molecules to be measured is not always highly specific as compared with antigen-antibody reaction. To find the most suitable combination, the degree of interaction should be evaluated. As an index to show the degree of interaction, for example, EC50 can be used, which is a half value of the minimum target concentration giving the maximum degree of fluorescence polarization.
BEACON™ 2000 (PanVera Corp.) was modified so as to be adapted for the detection of pyridylamino-labeled substances. […]
Seven fractions of fluorescence-labeled sugars prepared in the above item 1 were freeze-dried to remove water, acetonitrile and eluents-derived salts, and then used for the subsequent measurement of an interaction. The measurement of the degree of fluorescence polarization was conducted as follows. […]
In each of the eight solutions of concanavalin A in various concentrations, each fluorescence-labeled sugar fraction was dissolved to a concentration of 1 µM. After the dissolution, the solutions were allowed to stand at room temperature for 30 minutes, and the reaction mixtures thus obtained were used each in a volume of 100 µl to measure the degree of fluorescence polarization with a modified apparatus of the BEACON™ system as described in the above item 2, which was equipped with filters for excitation at 310 nm and emission at 390 nm. […]
Take `Nc1ccccn1` [AP, 2-Aminopyridine]: the “maximum in the degree of fluorescence polarization over the range of concentration of concanavalin A” value was “no maximum”.

Tested on in the next data set: not listed separately
Nature of the data set: Photostability of labeling fluorophores under white fluorescent lamp (residual fluorescence). The note with it: 1 µM in 10 mM Tris-HCl buffer, pH 7.5, 25°C, white fluorescent lamp about 4000 lux, 16 hours; ratio of exposed solution to shaded solution. It is filed as physicochemical. From the text: For the measurement of photostability, therefore, such labeling fluorophores are used. The following seven labeling fluorophores were selected. • 1. 2-Aminopyridine (AP) (Nacalai Tesque Inc.) • 2. […] 8-Amino-2-naphthol (AN) (Aldrich Chemical Company, Inc.) • 4. 5-((5-aminopentyl)thioureidyl)fluorescein (AF) (Molecular Probes Inc.) • 5. 5-Dimethylaminonapnthalene-1-(N-(2-minoethyl))sulfone (AD) (Molecular Probes Inc.) • 6. 2-Aminobenzamide (AB) (Oxford GlycoSystems Ltd.) • 7. 8-Amino-naphthalene-1,3,6-trisulfonic acid (ANTS) (Molecular Probes Inc.)
Each of the above reagents was dissolved in 10 mM Tris-HCl buffer, pH 7.5, to a concentration of 1 µM, and 1 ml of each solution was placed in a test tube of hard glass (size: diameter, 12 mm and length, 120mm) and allowed to stand at 25°C under a white fluorescent lamp. At this time, the illumination intensity in the vicinity of each solution was measured by an illumination photometer to be about 4000 lux. For controls, test tubes containing the same solutions were prepared, but they were shaded with aluminum foil and stored under the same conditions as described above. After 16 hours, the fluorescence of each solution was measured by fluorescent spectrophotometer RF-540 (Shimazu Corp.). The excitation and emission wavelengths used in the measurement of fluorescence of the solutions of each fluorescent substance, and residual fluorescence (i.e., ratio of the relative degree of fluorescence for the exposed solution to the relative degree of fluorescence for the shaded solution) are shown in Table 1.
For `NC(=O)c1ccccc1N` [AB, 2-Aminobenzamide], the “Residual fluorescence (%)” value is given as 96%.
Still for that read-out and setting: the same measure for `NCCCCCNC(=S)Nc1ccc2c(c1)C(=O)OC21c2ccc(O)cc2Oc2cc(O)ccc21` [AF, 5-((5-aminopentyl)thioureidyl)fluorescein]: 17%; for `Nc1ccccn1` [AP, 2-Aminopyridine]: 98%.
Regarding `Nc1cc(S(=O)(=O)O)cc2cc(S(=O)(=O)O)cc(S(=O)(=O)O)c12` [ANTS, 8-Amino-naphthalene-1,3,6-trisulfonic acid], the “Residual fluorescence (%)” value turned out to be 96%.
Turning to `Nc1cccc2ccc(O)cc12` [AN, 8-Amino-2-naphthol], the “Residual fluorescence (%)” value turned out to be 84%.
Consider `CN(C)c1cccc2c(S(=O)(=O)NCCN)cccc12` [AD, 5-Dimethylaminonapnthalene-1-(N-(2-minoethyl))sulfone], for which the “Residual fluorescence (%)” value turned out to be 97%.
